Source: paper PMC8966651, “PKPD Modeling of the Inoculum Effect of Acinetobacter baumannii on Polymyxin B in vivo” (Frontiers in Pharmacology, 2022)
Where a name gives a salt, the structure may show the parent alone. Read-outs that look alike come from different tables or passages of the source. Bridge positions count the residues as written; N and C are the ends. Square brackets hold non-standard residues; d marks the D form. Peptide text beside a SMILES is read from it. * marks the point of attachment. X1 = CC[C@H](C)CCCCC(=O)*; Dab = NCC[C@H](N)C(=O)O

Key:
[1] = PMB plasma protein binding by ultrafiltration (Centrifree) of plasma from infected mice; format: in vitro ADME; details: mouse plasma
Procedure: (§1) The PK of PMB was determined in neutropenic mice infected with the bacterial inoculum size of 10^6 CFU/thigh (n = 56). Mice were anesthetized by isoflurane (AbbVie, Rungis, France) inhalation (3%) for 5 min at each sampling time. Blood samples were collected by intracardiac puncture into heparinized tubes up to 24 h after PMB administration for a total of 7 time points per dose level (n = 3 animals per time point). Plasma was separated from the whole blood after centrifugation at 4,000 rpm for 10 min at 4°C and divided into two samples. The first sample was used to determine total PMB concentrations and the second one (0.15 ml) was ultrafiltered (4000 rpm for 30 min at room temperature) using Centrifree® ultrafiltration devices from Millipore (Merck KGaA) to determine unbound PMB concentrations and consequently protein binding. The non-specific binding of PMB to the membrane of the Centrifree® ultrafiltration devices ([Sader et al., 2012]) was determined by ultrafiltration of PMB solutions in phosphate buffer (pH7.2) at concentrations ranging from 0.2 to 7.5 mg/L and was used to correct ultrafiltrate concentrations. Plasma samples and ultrafiltrates were stored at −20°C until further analysis. Total and unbound PMB concentrations were determined by a liquid chromatography tandem mass spectrometry (LS-MS/MS) method (Supplemental Material).
A saturable non-specific binding (NSB) of PMB to the ultrafiltration membrane, translating to a non-linear decrease of PMB NSB when PMB concentration increased, was observed (Supplementary Figure S1) and could be described by the following equation: NSB = 0.47−0.16×ln(UF) (3) Where NSB corresponds to the non-specific binding (%) and UF to PMB concentrations in ultrafiltrates (mg/L). Equation 3 was used to correct ultrafiltrates concentrations, as follows: Unbound concentrations = UF/1−NSB (4)

[2] = PMB pharmacokinetics after a single subcutaneous dose in neutropenic thigh-infected mice (two-compartment model); format: in vivo; details: for Tmax: neutropenic mice infected with 10^6 CFU/thigh, n = 3 per time point, read-out: time to peak (Tmax)
Procedure: Animal experiments were carried out according to the EC Directive 2010/63/EU. They were approved by the local ethics committee (COMETHEA) and registered by the French Ministry of Higher Education and Research (approval numbers: 2019022216097190 and 2017072415099072). Five-week-old male Swiss RjOrl mice (n = 296) weighing 34 ± 2 g (mean ± standard deviation [SD]) were obtained from Janvier Labs (Saint-Berthevin, France). All animals were acclimatized in ventilated racks in a temperature-regulated environment with a 12 h light-dark cycle, with free access to food and water for a minimum of 5 days before the beginning of the experiment. Neutropenia was induced by intraperitoneal administrations of cyclophosphamide at 150 and 100 mg/kg, 4 days and 1 day prior to experimental infection, respectively ([Landersdorfer et al., 2018]). Thigh infection was induced by intramuscular administration of 0.1 ml of a bacterial suspension of 10^6, 10^7 or 10^8 CFU/ml (corresponding to 10^5, 10^6 and 10^7 CFU/thigh, respectively), into one of the posterior thigh muscles. Thus, three groups of mice were distinguished according to the inoculum injected (n = 76, 146 and 74 for 10^5, 10^6 and 10^7 CFU/thigh, respectively) Each group was divided into two subgroups: treated (n = 48, 116 and 45 for 10^5, 10^6 and 10^7 CFU/thigh, respectively) and control mice (n = 28, 30 and 29 for 10^5, 10^6 and 10^7 CFU/thigh, respectively).
Two hours after bacterial inoculation, mice received either a single subcutaneous administration of PMB (1, 15 or 40 mg/kg for mice infected with 10^6 and 10^7 CFU/thigh, and 15 or 40 mg/kg for mice infected with 10^5 CFU/thigh), or a subcutaneous administration of saline solution (control group).
as §1
A PKPD model was developed in two steps to quantify the exposure-effect relationship of PMB in infected mice. First, time courses of total and unbound PMB concentrations were modeled and then, PK parameters were fixed during development of the PD part of the PKPD model.
Different structural models including one, two or three compartments, linear, nonlinear (Michaelis-Menten) or parallel linear/nonlinear elimination were evaluated to describe PK data. Models with linear and nonlinear absorption were also tested. Additive, proportional and exponential residual error models were explored.
Model selection was based on objective function value (OFV) and goodness of fit (GOF) plots. When two models were nested, a decrease in OFV of at least 3.84 (chi square 1df p = 0.05) was needed to select the most complex model. […]

A. baumannii = details: ref Akrong et al., 2021, cited from earlier work; for increase of in vitro IK-HL: starting inoculum from 10^5 to 10^7 CFU/ml
Excerpt: High bacterial counts may alter antibiotherapy success due to an inoculum effect (IE) ([Chastre and Fagon, 2002]; [Koenig and Truwit, 2006]; [Kalanuria et al., 2014]), corresponding to a reduction of the antibiotic activity as bacterial count increases ([Harada et al., 2014]; [Lenhard and Bulman, 2019]). This phenomenon has been described in vitro for ß-lactam antibiotics used against ß-lactamases-producing bacteria such as Escherichia coli and Klebsiella pneumoniae ([Bedenić et al., 2001]; [Harada et al., 2014]; [Smith and Kirby, 2018]; [Lenhard and Bulman, 2019]). It has also been reported i ... || An innovative aspect of this study was the refinement of a PKPD model, based on the model developed after in vitro TK experiments conducted with A. baumannii and PMB ([Akrong et al., 2021]). […] The different growth behavior between in vitro and in vivo has been associated in literature ... || In both in vitro and in vivo PKPD models, a decrease in PMB killing effect was related to the baseline inoculum and was modeled either as a decrease of the in vivo PMB killing rate constant (kslope) or as an increase of the in vitro half-maximal effective concentration of PMB (EC50), making PMB IE difficult to compare between in vitro and in vivo. In vivo IK-HL were derived from Equation 5 for each starting inoculum and various PMB concentrations to better illustrate the consequences of IE on PMB activity (Table 3).

[3] = final PK model, estimate (%RSE)

CC[C@H](C)CCCCC(=O)N[C@@H](CCN)C(=O)N[C@H](C(=O)N[C@@H](CCN)C(=O)N[C@H]1CCNC(=O)[C@H]([C@@H](C)O)NC(=O)[C@H](CCN)NC(=O)[C@H](CCN)NC(=O)[C@H](CC(C)C)NC(=O)[C@@H](Cc2ccccc2)NC(=O)[C@H](CCN)NC1=O)[C@@H](C)O [PMB, Polymyxin B sulfate] (X1-[Dab]T[Dab][Dab][Dab][dF]L[Dab][Dab]T; lactam 4-C) gave a fraction unbound ([1]; male, Swiss RjOrl, sc, infected mice, ultrafiltration 4000 rpm 30 min room temperature, corrected for non-specific binding to membrane, LC-MS/MS, model estimate (%RSE)) of 0.166, an unbound fraction ([1]; infected mice, ultrafiltration corrected for non-specific binding, model estimate) of 17% and a plasma protein binding ([1]; ultrafiltration, this study) of about 80%. For the same molecule, the “increase of total Cmax when dose increased from 1 to 40 mg/kg” value ([2]; SC, plasma, infected mice) was 15 fold, the Maximum absorption rate ([2]; final PK model, saturable SC absorption, estimate (%RSE), doses 1, 15, 40 mg/kg) was 14.7 (10.3) mg/h/kg and the “Amount in the subcutaneous compartment that produces 50% of the maximum absorption rate” value [2, 3] was 2.24 (41.4) mg/kg. The “Distribution volume of the central compartment” value [2, 3] was 0.740 (16.7) L/kg, the “Distribution volume of the peripheral compartment” value [2, 3] was 0.743 (16.4) L/kg and the Intercompartmental clearance [2, 3] was 0.315 (27.3) L/h/kg. For the same molecule, the Cmax ([2]; male, Swiss RjOrl, mouse, plasma, sc, 1 mg/kg, plasma, single SC dose 1 mg/kg, mean ± SD, infected mice 10^6 CFU/thigh, LC-MS/MS, SD, read-out: Total PMB peak concentration (Cmax)) was 0.92 ± 0.14 µg/mL, the Cmax ([2]; male, Swiss RjOrl, mouse, plasma, sc, 40 mg/kg, plasma, single SC dose 40 mg/kg, mean ± SD, infected mice 10^6 CFU/thigh, LC-MS/MS, SD, read-out: Total PMB peak concentration (Cmax)) was 13.8 ± 0.81 µg/mL and the Cmax ([2]; male, Swiss RjOrl, mouse, plasma, sc, 40 mg/kg, this study, SC, highest dose 40 mg/kg, read-out: peak concentrations at the highest dose) was 15 µg/mL. It also gave a CL/F ([2]; male, Swiss RjOrl, mouse, plasma, sc, final PK model, linear elimination, estimate (%RSE), read-out: Clearance (converted)) of 0.437 L/h/kg, a Tmax ([2]; male, Swiss RjOrl, mouse, plasma, single SC dose 1 mg/kg, LC-MS/MS) of 0.5 h and a Tmax ([2]; male, Swiss RjOrl, mouse, plasma, single SC dose 40 mg/kg, LC-MS/MS) of 2 h. For the same molecule, the “in vitro IK-HL” value (A. baumannii; PMB 0.25 mg/L, starting inoculum 10^5 CFU/ml) was 10 min, the “in vitro IK-HL” value (A. baumannii; PMB 0.25 mg/L, starting inoculum 10^7 CFU/ml) was 24 min and the “increase of in vitro IK-HL” value (A. baumannii; PMB 0.25 mg/L) was 140%. The “in vitro IK-HL” value (A. baumannii; PMB 4 mg/L, starting inoculum 10^5 CFU/ml) was 5 min, the “in vitro IK-HL” value (A. baumannii; PMB 4 mg/L, starting inoculum 10^7 CFU/ml) was 8 min and the “increase of in vitro IK-HL” value (A. baumannii; PMB 4 mg/L) was 60%. For the same molecule, the “increase of the PMB concentration to reach 50% of maximal effect (EC50)” value (A. baumannii; initial inoculum increased from 10^5 to 10^8 CFU/ml, static time-kill) was 17 fold.
